According to ChEMBL document CHEMBL1201862, “PubChem BioAssay data set” (2004):
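All cell lines were grown in 96-well plates and treated with compound for 48 hours. Abbreviation: GI50, concentration required for 50% inhibition of growth.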 Calls of active or inactive are those of the source. Cut-off read from the data, not from the text of the source: active = GI50 up to about 1.1 µM and inactive = higher.

Assays:
Test in all cases: growth of human tumour cells (NCI), 48 h
SR = test system: SR
IGROV-1 = test system: IGROV-1
DMS-114 = test system: DMS-114
SW-620 = test system: SW-620
HOP-18 = test system: HOP-18
M19-MEL = test system: M19-MEL
SK-MEL-5 = test system: SK-MEL-5
LOX IMVI = test system: LOX IMVI
ACHN = test system: ACHN
HT-29 = test system: HT-29
LXFL 529 = test system: LXFL 529
TK-10 = test system: TK-10
OVCAR-5 = test system: OVCAR-5
SN12C = test system: SN12C
UO-31 = test system: UO-31
OVCAR-8 = test system: OVCAR-8
SF-295 = test system: SF-295
OVCAR-3 = test system: OVCAR-3
NCI-H460 = test system: NCI-H460
786-0 = test system: 786-0
SNB-19 = test system: SNB-19
DMS-273 = test system: DMS-273
SNB-78 = test system: SNB-78
CCRF-CEM = test system: CCRF-CEM
HCC 2998 = test system: HCC 2998
KM12 = test system: KM12
K562 = test system: K562
SF-268 = test system: SF-268
UACC-62 = test system: UACC-62
NCI-H226 = test system: NCI-H226
SK-OV-3 = test system: SK-OV-3
RXF 631 = test system: RXF 631
XF498 = test system: XF498
EKVX = test system: EKVX
RPMI-8226 = test system: RPMI-8226
SNB-75 = test system: SNB-75
KM-20L2 = test system: KM-20L2
HCT-15 = test system: HCT-15
HL-60 = test system: HL-60
A549 = test system: A549
M14 = test system: M14
HOP-62 = test system: HOP-62
COLO 205 = test system: COLO 205
RXF 393 = test system: RXF 393
SK-MEL-28 = test system: SK-MEL-28
Malme-3M = test system: Malme-3M
MOLT-4 = test system: MOLT-4
A498 = test system: A498
DLD-1 = test system: DLD-1
HCT-116 = test system: HCT-116
SK-MEL-2 = test system: SK-MEL-2
CAKI-1 = test system: CAKI-1
UACC-257 = test system: UACC-257
NCI-H23 = test system: NCI-H23
HOP-92 = test system: HOP-92
NCI-H522 = test system: NCI-H522
OVCAR-4 = test system: OVCAR-4
SF-539 = test system: SF-539
U-251 = test system: U-251

CC1(C)C(=O)N(c2ccccc2)C(=O)N1c1nc2ccccc2[nH]1
GI50 (SR): 78.7 µM (inactive) | GI50 (IGROV-1): > 100 µM (inactive) | GI50 (DMS-114): 38.7 µM (inactive) | GI50 (SW-620): 17.4 µM (inactive) | GI50 (HOP-18): > 100 µM (inactive) | GI50 (M19-MEL): > 100 µM (inactive) | GI50 (SK-MEL-5): > 100 µM (inactive) | GI50 (LOX IMVI): 85.9 µM (inactive) | GI50 (ACHN): > 100 µM (inactive) | GI50 (HT-29): 65.6 µM (inactive) | GI50 (LXFL 529): 85.3 µM (inactive) | GI50 (TK-10): > 100 µM (inactive) | GI50 (OVCAR-5): > 100 µM (inactive) | GI50 (SN12C): > 100 µM (inactive) | GI50 (UO-31): > 100 µM (inactive) | GI50 (OVCAR-8): > 100 µM (inactive) | GI50 (SF-295): > 100 µM (inactive) | GI50 (OVCAR-3): > 100 µM (inactive) | GI50 (NCI-H460): 71.9 µM (inactive) | GI50 (786-0): > 100 µM (inactive) | GI50 (SNB-19): > 100 µM (inactive) | GI50 (DMS-273): > 100 µM (inactive) | GI50 (SNB-78): > 100 µM (inactive) | GI50 (CCRF-CEM): 21.4 µM (inactive) | GI50 (HCC 2998): > 100 µM (inactive) | GI50 (KM12): > 100 µM (inactive) | GI50 (K562): 53.6 µM (inactive) | GI50 (SF-268): > 100 µM (inactive) | GI50 (UACC-62): > 100 µM (inactive) | GI50 (NCI-H226): > 100 µM (inactive) | GI50 (SK-OV-3): > 100 µM (inactive) | GI50 (RXF 631): > 100 µM (inactive) | GI50 (XF498): 92.7 µM (inactive) | GI50 (EKVX): > 100 µM (inactive) | GI50 (RPMI-8226): 33.7 µM (inactive) | GI50 (SNB-75): > 100 µM (inactive) | GI50 (KM-20L2): > 100 µM (inactive) | GI50 (HCT-15): 94.2 µM | GI50 (HL-60): 63.2 µM (inactive) | GI50 (A549): > 100 µM (inactive) | GI50 (M14): > 100 µM (inactive) | GI50 (HOP-62): > 100 µM (inactive) | GI50 (COLO 205): 49.7 µM (inactive) | GI50 (RXF 393): > 100 µM (inactive) | GI50 (SK-MEL-28): > 100 µM (inactive) | GI50 (Malme-3M): > 100 µM (inactive) | GI50 (MOLT-4): 40.9 µM (inactive) | GI50 (A498): > 100 µM (inactive) | GI50 (DLD-1): > 100 µM (inactive) | GI50 (HCT-116): 37.4 µM (inactive) | GI50 (SK-MEL-2): > 100 µM (inactive) | GI50 (CAKI-1): > 100 µM (inactive) | GI50 (UACC-257): > 100 µM (inactive) | GI50 (NCI-H23): > 100 µM (inactive) | GI50 (HOP-92): > 100 µM (inactive) | GI50 (NCI-H522): 54.7 µM (inactive)

COC(=O)c1cccc2cccc(C(=O)Nc3ccc(C)cc3C)c12
GI50 (SR): 37.6 µM (inactive) | GI50 (IGROV-1): > 100 µM (inactive) | GI50 (DMS-114): > 100 µM (inactive) | GI50 (SW-620): > 100 µM (inactive) | GI50 (HOP-18): 65.5 µM (inactive) | GI50 (M19-MEL): > 100 µM (inactive) | GI50 (SK-MEL-5): > 100 µM (inactive) | GI50 (LOX IMVI): > 100 µM (inactive) | GI50 (ACHN): 67.1 µM (inactive) | GI50 (HT-29): 91 µM (inactive) | GI50 (LXFL 529): > 100 µM (inactive) | GI50 (OVCAR-4): 93.8 µM (inactive) | GI50 (TK-10): > 100 µM (inactive) | GI50 (OVCAR-5): > 100 µM (inactive) | GI50 (SN12C): > 100 µM (inactive) | GI50 (UO-31): > 100 µM (inactive) | GI50 (OVCAR-8): > 100 µM (inactive) | GI50 (SF-295): > 100 µM (inactive) | GI50 (OVCAR-3): 72.8 µM (inactive) | GI50 (NCI-H460): > 100 µM (inactive) | GI50 (786-0): > 100 µM (inactive) | GI50 (SNB-19): > 100 µM (inactive) | GI50 (SF-539): 96.4 µM (inactive) | GI50 (DMS-273): > 100 µM (inactive) | GI50 (SNB-78): > 100 µM (inactive) | GI50 (U-251): > 100 µM (inactive) | GI50 (CCRF-CEM): 3.72 µM (inactive) | GI50 (HCC 2998): > 100 µM (inactive) | GI50 (KM12): > 100 µM (inactive) | GI50 (K562): > 100 µM (inactive) | GI50 (SF-268): > 100 µM (inactive) | GI50 (UACC-62): > 100 µM (inactive) | GI50 (NCI-H226): > 100 µM (inactive) | GI50 (SK-OV-3): > 100 µM (inactive) | GI50 (RXF 631): > 100 µM (inactive) | GI50 (XF498): 54.6 µM (inactive) | GI50 (EKVX): > 100 µM (inactive) | GI50 (RPMI-8226): 22.5 µM (inactive) | GI50 (SNB-75): > 100 µM (inactive) | GI50 (KM-20L2): > 100 µM (inactive) | GI50 (HCT-15): > 100 µM | GI50 (HL-60): 1.08 µM (active) | GI50 (A549): > 100 µM (inactive) | GI50 (M14): > 100 µM (inactive) | GI50 (HOP-62): > 100 µM (inactive) | GI50 (COLO 205): 69.5 µM (inactive) | GI50 (RXF 393): 39.3 µM (inactive) | GI50 (SK-MEL-28): > 100 µM (inactive) | GI50 (Malme-3M): > 100 µM (inactive) | GI50 (MOLT-4): 48.5 µM (inactive) | GI50 (A498): 33 µM (inactive) | GI50 (DLD-1): > 100 µM (inactive) | GI50 (HCT-116): > 100 µM (inactive) | GI50 (SK-MEL-2): > 100 µM (inactive) | GI50 (CAKI-1): > 100 µM (inactive) | GI50 (UACC-257): > 100 µM (inactive) | GI50 (NCI-H23): > 100 µM (inactive) | GI50 (HOP-92): 61.8 µM (inactive) | GI50 (NCI-H522): 70.1 µM (inactive)
